Values quoted from earlier work in patent publication US20220000797A1, “CLEAR PROPOFOL INJECTION AND PREPARATION METHOD THEREFOR” ((BIKA BIOTECHNOLOGY (GUANGZHOU) CO., LTD), priority 2018, published 2022).
Read-outs that look alike come from different tables or passages of the source.

In the case of O=C([O-])O.[Na+] [sodium bicarbonate], the injection pain (final concentration of sodium bicarbonate approaches 1.4%) is given as “can reduce injection pain” and the injection pain (low concentration of sodium bicarbonate (0.25%)) is given as “cannot reduce injection pain”.
